Results reported in patent US10172843B2, “Piperidine derivatives” (Hoffmann-La Roche Inc., priority 2014, dated 2019).
Like-named read-outs stand apart in the source and are kept apart here.

Target: human Cat S (Homo sapiens (Human), UniProt P25774)
Test: Cathepsin enzyme inhibition assay (fluorogenic peptide substrate)
Assay type: biochemical
Settings: read-out: CatS IC50
Protocol: Cathepsin Enzyme Inhibition Assay
Enzyme activity is measured by observing the increase in fluorescence intensity caused by cleavage of a peptide substrate containing a fluorophore whose emission is quenched in the intact peptide.
Assay buffer: 100 mM potassium phosphate pH 6.5, EDTA-Na 5 mM, Triton X-100 0.001%, DTT 5 mM.
Enzymes (all at 1 nM): human and mouse Cathepsin S, Cat K, Cat B, Cat L.
Substrate ([…], except for Cat K which uses Z-Leu-Arg-AMC (both from Bachem).
Excitation 360 nm, Emission 465 nm.
Enzyme is added to the substance dilutions in 96-well microtitre plates and the reaction is started with substrate. […] IC50 are calculated by standard methods.
Inhibition of human Cat S, mouse Cat S, human Cat K, mouse Cat K, human Cat B, mouse Cat B, human Cat L and mouse Cat L have been measured separately.

[1] = human Cat S, enzyme 1 nM, substrate Z-Val-Val-Arg-AMC, pH 6.5

human Cat S, sequence (P25774 115-331): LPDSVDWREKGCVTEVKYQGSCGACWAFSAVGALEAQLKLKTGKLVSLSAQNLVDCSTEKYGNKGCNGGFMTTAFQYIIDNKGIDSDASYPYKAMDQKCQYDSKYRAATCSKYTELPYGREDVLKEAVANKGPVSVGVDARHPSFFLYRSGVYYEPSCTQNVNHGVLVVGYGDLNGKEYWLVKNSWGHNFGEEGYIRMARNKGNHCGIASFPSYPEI

Molecule	IC50 [1]	IC50
Cc1[nH]c(-c2ccc(C(F)(F)F)cc2)nc1CN1CCC(n2c(=O)n(C)c3cc(Cl)ccc32)CC1 [Example 18, 5-Chloro-3-methyl-1-{1-[5-methyl-2-(4-trifluoromethyl-phenyl)-1H-imidazol-4-ylmethyl]-piperidin-4-yl}-1,3-dihydro-benzoimidazol-2-one]	195 nM	
Cc1[nH]c(-c2ccc(C(F)(F)F)c(F)c2)nc1CN1CCC(n2c(=O)n(C)c3ccccc32)CC1 [Example 44, 1-{1-[2-(3-Fluoro-4-trifluoromethyl-phenyl)-5-methyl-1H-imidazol-4-ylmethyl]-piperidin-4-yl}-3-methyl-1,3-dihydro-benzoimidazol-2-one]	385 nM	
Cc1[nH]c(-c2ccc(S(=O)(=O)Cc3ccccc3)cc2)nc1CN1CCC(n2c(=O)n(C)c3ccccc32)CC1 [Example 81, 1-Methyl-3-{1-[5-methyl-2-(4-phenylmethanesulfonyl-phenyl)-1H-imidazol-4-ylmethyl]-piperidin-4-yl}-1,3-dihydro-benzoimidazol-2-one]	170 nM	
Cc1[nH]c(-c2ccc(C(F)(F)F)cc2)nc1CN1CCC(N2C(=O)Cc3cc(Cl)ccc32)CC1 [Example 43, 5-Chloro-1-{1-[5-methyl-2-(4-trifluoromethyl-phenyl)-1H-imidazol-4-ylmethyl]-piperidin-4-yl}-1,3-dihydro-indol-2-one]		445 nM
Cc1[nH]c(-c2ccc(C(F)(F)F)cc2)nc1CN1CCC(n2c(=O)[nH]c3ccc(N4CCCC4)cc32)CC1 [Example 9, 1-{1-[5-Methyl-2-(4-trifluoromethyl-phenyl)-1H-imidazol-4-ylmethyl]-piperidin-4-yl}-6-pyrrolidin-1-yl-1,3-dihydro-benzoimidazol-2-one]	190 nM	
CCCc1[nH]c(-c2ccc(C(F)(F)F)cc2)nc1CN1CCC(N2Cc3ccccc3NC2=O)CC1 [Example 62, 3-{1-[5-Propyl-2-(4-trifluoromethyl-phenyl)-1H-imidazol-4-ylmethyl]-piperidin-4-yl}-3,4-dihydro-1H-quinazolin-2-one]	300 nM	
Cc1[nH]c(-c2ccc(S(=O)(=O)C(F)(F)F)cc2)nc1CN1CCC(n2c(=O)n(C)c3ccccc32)CC1 [Example 75, 1-Methyl-3-{1-[5-methyl-2-(4-trifluoromethanesulfonyl-phenyl)-1H-imidazol-4-ylmethyl]-piperidin-4-yl}-1,3-dihydro-benzoimidazol-2-one]	60 nM	
Cc1[nH]c(-c2ccc(C(F)(F)F)cc2)nc1CN1CCC(n2c(=O)[nH]c3ccc(N4CCN(C)CC4)cc32)CC1 [Example 11, 6-(4-Methyl-piperazin-1-yl)-1-{1-[5-methyl-2-(4-trifluoromethyl-phenyl)-1H-imidazol-4-ylmethyl]-piperidin-4-yl}-1,3-dihydro-benzoimidazol-2-one]	460 nM	
Cc1[nH]c(-c2ccc(C(F)(F)F)cc2)nc1CN1CCC(N2Cc3ccccc3N(C)C2=O)CC1 [Example 53, 1-Methyl-3-{1-[5-methyl-2-(4-trifluoromethyl-phenyl)-1H-imidazol-4-ylmethyl]-piperidin-4-yl}-3,4-dihydro-1H-quinazolin-2-one]	145 nM	
Cc1[nH]c(-c2ccc(S(=O)(=O)C(F)(F)F)cc2)nc1CN1CCC(N2Cc3ccccc3NC2=O)CC1 [Example 72, 3-{1-[5-Methyl-2-(4-trifluoromethanesulfonyl-phenyl)-1H-imidazol-4-ylmethyl]-piperidin-4-yl}-3,4-dihydro-1H-quinazolin-2-one]	24 nM	
5-(4-Bromophenyl)-3-[1-[[2-[4-(trifluoromethyl)phenyl]-1H-imidazol-5-yl]methyl]-4-piperidyl]-1H-imidazol-2-one [Example 15]	4560 nM	
Cc1[nH]c(-c2ccc(C(F)(F)F)cc2)nc1CN1CCC(c2c[nH]c3ccncc23)CC1 [Example 63, 3-{1-[5-Methyl-2-(4-trifluoromethyl-phenyl)-1H-imidazol-4-ylmethyl]-piperidin-4-yl}-1H-pyrrolo[3,2-c]pyridine]	667 nM	
Cc1[nH]c(-c2ccc(C(F)(F)F)cc2)nc1CN1CCC(n2c(=O)n(CCO)c3cc(Cl)ccc32)CC1 [Example 30, 5-Chloro-3-(2-hydroxy-ethyl)-1-{1-[5-methyl-2-(4-trifluoromethyl-phenyl)-1H-imidazol-4-ylmethyl]-piperidin-4-yl}-1,3-dihydro-benzoimidazol-2-one]	230 nM	
CNC(=O)Cn1c(=O)n(C2CCN(Cc3nc(-c4ccc(C(F)(F)F)cc4)[nH]c3C)CC2)c2ccc(Cl)cc21 [Example 32, 2-(6-Chloro-3-{1-[5-methyl-2-(4-trifluoromethyl-phenyl)-1H-imidazol-4-ylmethyl]-piperidin-4-yl}-2-oxo-2,3-dihydro-benzoimidazol-1-yl)-N-methyl-acetamide]	330 nM	
Cc1[nH]c(-c2ccc(C(F)(F)F)cc2)nc1CN1CCC(N2C(=O)COc3ccccc32)CC1 [Example 19, 4-{1-[5-Methyl-2-(4-trifluoromethyl-phenyl)-1H-imidazol-4-ylmethyl]-piperidin-4-yl}-4H-benzo[1,4]oxazin-3-one]		470 nM
Cc1[nH]c(-c2ccc(C(F)(F)F)cc2)nc1CN1CCC(N2Cc3ccc(F)cc3NC2=O)CC1 [Example 25, 7-Fluoro-3-{1-[5-methyl-2-(4-trifluoromethyl-phenyl)-1H-imidazol-4-ylmethyl]-piperidin-4-yl}-3,4-dihydro-1H-quinazolin-2-one]	180 nM	
Cc1[nH]c(-c2ccc(C(F)(F)F)c(Cl)c2)nc1CN1CCC(c2c[nH]c3ncccc23)CC1 [Example 46, 3-{1-[2-(3-Chloro-4-trifluoromethyl-phenyl)-5-methyl-1H-imidazol-4-ylmethyl]-piperidin-4-yl}-1H-pyrrolo[2,3-b]pyridine]	305 nM	
COCCn1c(-c2ccc(C(F)(F)F)cc2)nc(CN2CCC(N3Cc4ccccc4NC3=O)CC2)c1C [Example 76, 3-{1-[1-(2-Methoxy-ethyl)-5-methyl-2-(4-trifluoromethyl-phenyl)-1H-imidazol-4-ylmethyl]-piperidin-4-yl}-3,4-dihydro-1H-quinazolin-2-one]	317 nM	
Cc1[nH]c(-c2ccc(S(C)(=O)=O)cc2)nc1CN1CCC(N2Cc3ccccc3NC2=O)CC1 [Example 74, 3-{1-[2-(4-Methanesulfonyl-phenyl)-5-methyl-1H-imidazol-4-ylmethyl]-piperidin-4-yl}-3,4-dihydro-1H-quinazolin-2-one]	94 nM	
Cc1[nH]c(-c2ccc(C(F)(F)F)c(Cl)c2)nc1CN1CCC(n2c(=O)n(C)c3ccccc32)CC1 [Example 39, 1-{1-[2-(3-Chloro-4-trifluoromethyl-phenyl)-5-methyl-1H-imidazol-4-ylmethyl]-piperidin-4-yl}-3-methyl-1,3-dihydro-benzoimidazol-2-one]	242 nM	
Cc1[nH]c(-c2ccc(C(F)(F)F)cc2)nc1CN1CCC(n2c(=O)[nH]c3ccc(N4CCOCC4)cc32)CC1 [Example 10, 1-{1-[5-Methyl-2-(4-trifluoromethyl-phenyl)-1H-imidazol-4-ylmethyl]-piperidin-4-yl}-6-morpholin-4-yl-1,3-dihydro-benzoimidazol-2-one]	280 nM	
CCCc1[nH]c(-c2ccc(C(F)(F)F)cc2)nc1CN1CCC(n2c(=O)n(C)c3ccccc32)CC1 [Example 64, 1-Methyl-3-{1-[5-propyl-2-(4-trifluoromethyl-phenyl)-1H-imidazol-4-ylmethyl]-piperidin-4-yl}-1,3-dihydro-benzoimidazol-2-one]	928 nM	
Cc1[nH]c(-c2ccc(Cl)c(Cl)c2)nc1CN1CCC(N2Cc3ccc(F)cc3NC2=O)CC1 [Example 48, 3-{1-[2-(3,4-Dichloro-phenyl)-5-methyl-1H-imidazol-4-ylmethyl]-piperidin-4-yl}-7-fluoro-3,4-dihydro-1H-quinazolin-2-one]	450 nM	
Cc1[nH]c(-c2ccc(S(=O)(=O)Cc3ccccc3)cc2)nc1CN1CCC(N2Cc3ccccc3NC2=O)CC1 [Example 80, 3-{1-[5-Methyl-2-(4-phenylmethanesulfonyl-phenyl)-1H-imidazol-4-ylmethyl]-piperidin-4-yl}-3,4-dihydro-1H-quinazolin-2-one]	99 nM	
Cc1[nH]c(-c2ccc(C(F)(F)F)cc2)nc1CN1CCC(n2c(=O)n(CC(=O)O)c3cc(Cl)ccc32)CC1 [Example 34, (6-Chloro-3-{1-[5-methyl-2-(4-trifluoromethyl-phenyl)-1H-imidazol-4-ylmethyl]-piperidin-4-yl}-2-oxo-2,3-dihydro-benzoimidazol-1-yl)-acetic acid]	930 nM	
Cc1[nH]c(-c2ccc(C(F)(F)F)cc2)nc1CN1CCC(n2cnc3ccccc32)CC1 [Example 3, 1-{1-[5-Methyl-2-(4-trifluoromethyl-phenyl)-1H-imidazol-4-ylmethyl]-piperidin-4-yl}-1H-benzoimidazole]	450 nM	
Cc1nc(-c2ccc(C(F)(F)F)cc2)[nH]c1CN1CCC(n2cc(-c3ccc(Br)cc3)[nH]c2=O)CC1 [Example 12, 5-(4-Bromophenyl)-3-[1-[[4-methyl-2-[4-(trifluoromethyl)phenyl]-1H-imidazol-5-yl]methyl]-4-piperidyl]-1H-imidazol-2-one]	590 nM	
COC(=O)Cn1c(=O)n(C2CCN(Cc3nc(-c4ccc(C(F)(F)F)cc4)[nH]c3C)CC2)c2ccc(Cl)cc21 [Example 33, (6-Chloro-3-{1-[5-methyl-2-(4-trifluoromethyl-phenyl)-1H-imidazol-4-ylmethyl]-piperidin-4-yl}-2-oxo-2,3-dihydro-benzoimidazol-1-yl)-acetic acid methyl ester]	130 nM	
